Assay results taken from ChEMBL document CHEMBL1201862, “PubChem BioAssay data set” (2004).
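Assay format: 96-well plates, 48-hour exposure. GI50 = concentration required for 50% inhibition of growth.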 Active and inactive are the calls of the source. No stated cut-off is given here; in the data, active = GI50 up to about 1.1 µM and inactive = higher.

Assays:
Assay in all cases: DTP human tumour cell line panel, 48 h
786-0 = system: 786-0
ACHN = system: ACHN
BT-549 = system: BT-549
CAKI-1 = system: CAKI-1
CCRF-CEM = system: CCRF-CEM
COLO 205 = system: COLO 205
DU-145 = system: DU-145
HOP-92 = system: HOP-92
HT-29 = system: HT-29
KM12 = system: KM12
MCF7 = system: MCF7
MDA-MB-435 = system: MDA-MB-435
MDA-N = system: MDA-N
OVCAR-4 = system: OVCAR-4
PC-3 = system: PC-3
SF-268 = system: SF-268
SK-OV-3 = system: SK-OV-3
SN12C = system: SN12C
UO-31 = system: UO-31
HL-60 = system: HL-60

Row | Structure (SMILES) | GI50 (786-0) | GI50 (ACHN) | GI50 (BT-549) | GI50 (CAKI-1) | GI50 (CCRF-CEM) | GI50 (COLO 205) | GI50 (DU-145) | GI50 (HOP-92) | GI50 (HT-29) | GI50 (KM12) | GI50 (MCF7) | GI50 (MDA-MB-435) | GI50 (MDA-N) | GI50 (OVCAR-4) | GI50 (PC-3) | GI50 (SF-268) | GI50 (SK-OV-3) | GI50 (SN12C) | GI50 (UO-31) | GI50 (HL-60)
1 | CC(=O)OCC1OC(OCCCOP(=S)(OCCC#N)OCC2OC(n3ccc(N)nc3=O)C(OC(=O)c3ccccc3)C2OC(=O)c2ccccc2)C(OC(C)=O)C(OC(C)=O)C1OC(C)=O (stereo unspecified) | > 100 µM (inactive) | > 100 µM (inactive) | > 100 µM (inactive) | > 100 µM (inactive) | > 100 µM (inactive) | > 100 µM (inactive) | > 100 µM (inactive) | > 100 µM (inactive) | > 100 µM (inactive) | > 100 µM (inactive) | 46.6 µM (inactive) | > 100 µM (inactive) | > 100 µM (inactive) | > 100 µM (inactive) | > 100 µM (inactive) | > 100 µM (inactive) | > 100 µM (inactive) | > 100 µM (inactive) | > 100 µM (inactive) | 
2 | c1ccc2c(c1)SC1=C(SC(=C3SC4=C(S3)Sc3ccccc3S4)S1)S2 | 91 µM (inactive) | > 100 µM (inactive) | > 100 µM (inactive) | > 100 µM (inactive) | > 100 µM (inactive) | > 100 µM (inactive) | > 100 µM (inactive) | > 100 µM (inactive) | > 100 µM (inactive) | > 100 µM (inactive) | > 100 µM (inactive) | > 100 µM (inactive) | > 100 µM (inactive) | > 100 µM (inactive) | > 100 µM (inactive) | > 100 µM (inactive) |  | > 100 µM (inactive) | > 100 µM (inactive) | > 100 µM (inactive)
3 | O=C(/C=C/c1ccc(O)c(O)c1)OCCCOC(=O)/C=C/c1ccc(O)c(O)c1 | 20.2 µM (inactive) | 16.2 µM (inactive) | 25.3 µM (inactive) | 34.4 µM (inactive) | 2.63 µM (inactive) | 28.9 µM (inactive) | 34.8 µM (inactive) | 20 µM (inactive) | 22.3 µM (inactive) | 33.3 µM (inactive) | 30.6 µM (inactive) | 30.2 µM (inactive) | 17.5 µM (inactive) | 23.2 µM (inactive) | 30.5 µM (inactive) | 23.9 µM (inactive) | 27.2 µM (inactive) | 28.1 µM (inactive) | 7.13 µM (inactive) | 
4 | COc1cc2c(c3oc4c(O)cccc4c(=O)c13)CC(C(C)(O)CO)O2 (stereo unspecified) | 65.6 µM (inactive) | 59.6 µM (inactive) | 34.5 µM (inactive) | 39.9 µM (inactive) | 21.3 µM (inactive) | > 100 µM (inactive) | > 100 µM (inactive) | 37.2 µM (inactive) | 43.8 µM (inactive) |  | 19.5 µM (inactive) | > 100 µM (inactive) | 94.8 µM (inactive) |  | > 100 µM (inactive) | 46.8 µM (inactive) |  | 60.1 µM (inactive) | > 100 µM (inactive) | 83.2 µM (inactive)
5 | CC(C)(O)C1CC[C@]2(C)[C@H]3CC[C@@H]4[C@@]5(C)CCCC(C)(C)[C@@H]5CC[C@@]4(C)[C@]3(C)CC[C@@H]12 (stereo partly specified) | > 100 µM (inactive) | > 100 µM (inactive) | > 100 µM (inactive) | > 100 µM (inactive) | > 100 µM (inactive) | > 100 µM (inactive) | > 100 µM (inactive) | > 100 µM (inactive) | > 100 µM (inactive) | > 100 µM (inactive) | > 100 µM (inactive) | > 100 µM (inactive) | > 100 µM (inactive) | > 100 µM (inactive) | > 100 µM (inactive) | > 100 µM (inactive) | > 100 µM (inactive) | > 100 µM (inactive) |  | > 100 µM (inactive)
6 | C/C(=N\NC(=O)/C(C#N)=C\c1ccc(N(CCC#N)CCC#N)cc1)c1ccccc1 | > 10 µM (inactive) | > 10 µM (inactive) | > 10 µM (inactive) | > 10 µM (inactive) |  | > 10 µM (inactive) | > 10 µM (inactive) | > 10 µM (inactive) | > 10 µM (inactive) | > 10 µM (inactive) | > 10 µM (inactive) | > 10 µM (inactive) | > 10 µM (inactive) | > 10 µM (inactive) | > 10 µM (inactive) | > 10 µM (inactive) | > 10 µM (inactive) | > 10 µM (inactive) | > 10 µM (inactive) | > 10 µM (inactive)
7 | Cc1cc(O)c(C(C)C)cc1C1(c2cc(C(C)C)c(O)cc2C)OC(=O)c2ccccc21 | 2.4 µM (inactive) | 2.62 µM (inactive) | 2.24 µM (inactive) | 3.37 µM (inactive) |  | 1.93 µM (inactive) | 2.07 µM (inactive) | 1.92 µM (inactive) | 2.39 µM (inactive) | 1.75 µM (inactive) | 1.84 µM (inactive) | 1.63 µM (inactive) | 1.67 µM (inactive) | 2.12 µM (inactive) | 2.26 µM (inactive) | 2.1 µM (inactive) | 4.47 µM (inactive) | 2.02 µM (inactive) | 2.56 µM (inactive) | 0.415 µM (active)
